According to publication PMC3758386 (Psychopharmacology, 2013):
Several values for one entry are separate records, joined by “and”; a condition that tells them apart may be missing. Equal entries are not always repeated.

How the values were obtained:
K+ Channel hERG = K+ Channel hERG (Homo sapiens, UniProt Q12809); assay: receptor screen, K+ Channel hERG; type: binding; settings: from Ki values of Table 2
[1] = system: extracellular DA levels in the NAC shell; assay: In vivo microdialysis, extracellular DA in NAC shell; settings: rat; for rate of increase in DA concentrations: ±SEM; for DA concentrations in NAC shell at times of conditioning sessions compared with 3.0 mg/kg cocaine (165% of basal): pretreatment 0, 45, 90 min
rats = assay: Place conditioning; type: in vivo; settings: rat
Y335A mutant DAT = settings: transfected cells, cited from earlier work
DAT = assay: radioligand binding, DAT; settings: from Ki values of Table 2
Adenosine A1 = molecular target: T1, Adenosine A1 (Homo sapiens, UniProt P30542); assay: receptor screen, Adenosine A1; type: binding; settings: [3H]DPCPX, inactive = displacement at 10,000 nM less than 75%
T1 sequence (P30542 1-326): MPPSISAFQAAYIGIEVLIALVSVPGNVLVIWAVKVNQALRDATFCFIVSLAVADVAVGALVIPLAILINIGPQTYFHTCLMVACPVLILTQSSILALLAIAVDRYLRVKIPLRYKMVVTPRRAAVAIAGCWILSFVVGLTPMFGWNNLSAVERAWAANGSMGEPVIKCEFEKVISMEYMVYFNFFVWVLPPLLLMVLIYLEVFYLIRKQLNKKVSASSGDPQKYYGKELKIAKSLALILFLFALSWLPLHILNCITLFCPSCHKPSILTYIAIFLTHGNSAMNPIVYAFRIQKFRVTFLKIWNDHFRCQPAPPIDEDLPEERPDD

Dopamine D2L = Dopamine D2L (Homo sapiens, UniProt P14416); assay: receptor screen, Dopamine D2L; type: binding; settings: inactive = displacement at 10,000 nM less than 75%
Dopamine D2L, sequence (P14416 whole entry): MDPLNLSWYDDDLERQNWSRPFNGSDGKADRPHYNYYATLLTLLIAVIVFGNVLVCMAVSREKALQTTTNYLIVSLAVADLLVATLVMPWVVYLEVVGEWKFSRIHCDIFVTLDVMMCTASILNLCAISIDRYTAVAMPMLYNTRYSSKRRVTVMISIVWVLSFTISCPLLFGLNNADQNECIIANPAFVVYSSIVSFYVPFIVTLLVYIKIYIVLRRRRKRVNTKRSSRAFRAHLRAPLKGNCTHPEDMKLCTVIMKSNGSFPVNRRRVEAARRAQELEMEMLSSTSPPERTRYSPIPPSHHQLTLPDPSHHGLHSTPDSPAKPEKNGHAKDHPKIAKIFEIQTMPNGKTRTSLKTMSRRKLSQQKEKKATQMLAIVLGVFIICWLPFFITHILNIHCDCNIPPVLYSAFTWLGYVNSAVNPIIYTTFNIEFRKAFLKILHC

Estrogen ERα = Estrogen ERα (Homo sapiens, UniProt P03372); assay: receptor screen, Estrogen ERα; type: binding; settings: inactive = displacement at 10,000 nM less than 75%
Estrogen ERα, sequence (P03372 whole entry): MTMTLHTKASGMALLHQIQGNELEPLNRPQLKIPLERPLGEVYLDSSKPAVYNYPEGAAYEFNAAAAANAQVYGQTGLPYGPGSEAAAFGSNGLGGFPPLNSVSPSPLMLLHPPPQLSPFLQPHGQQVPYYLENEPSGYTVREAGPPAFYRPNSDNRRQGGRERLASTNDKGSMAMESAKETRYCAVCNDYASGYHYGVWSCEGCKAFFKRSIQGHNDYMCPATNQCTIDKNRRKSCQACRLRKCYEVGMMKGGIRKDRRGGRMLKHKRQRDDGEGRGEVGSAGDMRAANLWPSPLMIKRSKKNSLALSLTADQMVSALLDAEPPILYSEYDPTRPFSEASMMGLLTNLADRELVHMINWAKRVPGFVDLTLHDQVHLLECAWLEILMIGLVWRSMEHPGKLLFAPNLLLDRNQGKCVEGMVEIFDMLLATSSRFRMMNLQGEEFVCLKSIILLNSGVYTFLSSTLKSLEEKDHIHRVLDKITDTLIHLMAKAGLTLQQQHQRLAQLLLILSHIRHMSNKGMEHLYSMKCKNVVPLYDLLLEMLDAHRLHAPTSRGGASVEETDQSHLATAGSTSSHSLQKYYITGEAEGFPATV

Glucocorticoid = molecular target: T2, Glucocorticoid (Homo sapiens, UniProt P04150); assay: receptor screen, Glucocorticoid; type: binding; settings: inactive = displacement at 10,000 nM less than 75%
T2 sequence (P04150 1-777): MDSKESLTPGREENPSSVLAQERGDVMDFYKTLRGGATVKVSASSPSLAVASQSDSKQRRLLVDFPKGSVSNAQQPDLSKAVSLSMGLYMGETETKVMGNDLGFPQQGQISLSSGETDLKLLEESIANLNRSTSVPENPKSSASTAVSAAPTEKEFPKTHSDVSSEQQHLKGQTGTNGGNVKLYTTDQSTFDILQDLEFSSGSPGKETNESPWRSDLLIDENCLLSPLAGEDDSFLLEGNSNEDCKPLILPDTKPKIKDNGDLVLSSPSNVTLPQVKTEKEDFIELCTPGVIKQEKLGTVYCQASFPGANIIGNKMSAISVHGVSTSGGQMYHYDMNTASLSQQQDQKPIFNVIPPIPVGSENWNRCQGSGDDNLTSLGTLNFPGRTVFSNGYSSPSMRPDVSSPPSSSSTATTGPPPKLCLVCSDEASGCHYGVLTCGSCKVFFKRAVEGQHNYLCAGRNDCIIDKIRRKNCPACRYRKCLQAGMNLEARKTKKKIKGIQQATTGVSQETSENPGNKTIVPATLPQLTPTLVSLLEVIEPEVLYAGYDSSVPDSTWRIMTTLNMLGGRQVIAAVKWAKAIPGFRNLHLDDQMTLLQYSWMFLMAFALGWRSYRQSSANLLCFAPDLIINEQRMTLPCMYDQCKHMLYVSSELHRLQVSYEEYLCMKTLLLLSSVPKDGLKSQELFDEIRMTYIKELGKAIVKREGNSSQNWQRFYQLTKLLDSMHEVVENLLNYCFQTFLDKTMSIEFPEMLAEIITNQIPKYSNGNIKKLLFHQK

Muscarinic M2 = molecular target: T3, Muscarinic M2 (Homo sapiens, UniProt P08172); assay: receptor screen, Muscarinic M2; type: binding; settings: read-out: Ki Muscarinic M2, [3H]N-methylscopolamine
T3 sequence (P08172 1-466): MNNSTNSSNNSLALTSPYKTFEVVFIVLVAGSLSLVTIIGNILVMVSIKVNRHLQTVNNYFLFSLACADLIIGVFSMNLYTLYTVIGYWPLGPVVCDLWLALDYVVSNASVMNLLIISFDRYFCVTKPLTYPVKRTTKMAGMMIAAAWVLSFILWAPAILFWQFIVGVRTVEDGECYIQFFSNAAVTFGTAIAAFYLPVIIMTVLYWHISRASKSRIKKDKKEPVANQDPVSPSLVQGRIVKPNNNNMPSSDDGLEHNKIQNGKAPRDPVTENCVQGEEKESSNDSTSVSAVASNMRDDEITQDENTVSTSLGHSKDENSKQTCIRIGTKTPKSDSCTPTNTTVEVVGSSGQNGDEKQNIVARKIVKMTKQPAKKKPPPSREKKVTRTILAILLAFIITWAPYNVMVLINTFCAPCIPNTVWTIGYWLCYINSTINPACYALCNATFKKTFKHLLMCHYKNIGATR

Muscarinic M3 = Muscarinic M3 (Homo sapiens, UniProt P20309); assay: receptor screen, Muscarinic M3; type: binding; settings: read-out: Ki Muscarinic M3, [3H]N-methylscopolamine
Muscarinic M3, sequence (P20309 whole entry): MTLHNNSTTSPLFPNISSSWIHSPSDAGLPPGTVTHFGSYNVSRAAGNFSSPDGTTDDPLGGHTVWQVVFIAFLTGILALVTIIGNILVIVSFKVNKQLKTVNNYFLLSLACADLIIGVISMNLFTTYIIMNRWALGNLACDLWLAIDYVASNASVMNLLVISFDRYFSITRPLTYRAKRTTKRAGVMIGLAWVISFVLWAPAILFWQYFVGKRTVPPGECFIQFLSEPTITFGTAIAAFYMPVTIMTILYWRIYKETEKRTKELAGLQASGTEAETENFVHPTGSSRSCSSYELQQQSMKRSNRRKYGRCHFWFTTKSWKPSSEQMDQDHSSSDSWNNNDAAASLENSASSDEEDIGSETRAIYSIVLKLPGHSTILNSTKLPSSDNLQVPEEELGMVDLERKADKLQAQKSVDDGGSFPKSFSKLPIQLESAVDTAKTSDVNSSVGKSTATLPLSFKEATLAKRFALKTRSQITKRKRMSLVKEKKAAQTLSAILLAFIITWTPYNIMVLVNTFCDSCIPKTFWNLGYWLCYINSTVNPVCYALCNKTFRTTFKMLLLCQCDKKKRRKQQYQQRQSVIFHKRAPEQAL

Progesterone = molecular target: T4, Progesterone (Bos taurus, UniProt F1N712); assay: receptor screen, Progesterone; type: binding, Bovine; settings: [3H]R-5020, inactive = displacement at 10,000 nM less than 75%
T4 sequence (F1N712 1-914): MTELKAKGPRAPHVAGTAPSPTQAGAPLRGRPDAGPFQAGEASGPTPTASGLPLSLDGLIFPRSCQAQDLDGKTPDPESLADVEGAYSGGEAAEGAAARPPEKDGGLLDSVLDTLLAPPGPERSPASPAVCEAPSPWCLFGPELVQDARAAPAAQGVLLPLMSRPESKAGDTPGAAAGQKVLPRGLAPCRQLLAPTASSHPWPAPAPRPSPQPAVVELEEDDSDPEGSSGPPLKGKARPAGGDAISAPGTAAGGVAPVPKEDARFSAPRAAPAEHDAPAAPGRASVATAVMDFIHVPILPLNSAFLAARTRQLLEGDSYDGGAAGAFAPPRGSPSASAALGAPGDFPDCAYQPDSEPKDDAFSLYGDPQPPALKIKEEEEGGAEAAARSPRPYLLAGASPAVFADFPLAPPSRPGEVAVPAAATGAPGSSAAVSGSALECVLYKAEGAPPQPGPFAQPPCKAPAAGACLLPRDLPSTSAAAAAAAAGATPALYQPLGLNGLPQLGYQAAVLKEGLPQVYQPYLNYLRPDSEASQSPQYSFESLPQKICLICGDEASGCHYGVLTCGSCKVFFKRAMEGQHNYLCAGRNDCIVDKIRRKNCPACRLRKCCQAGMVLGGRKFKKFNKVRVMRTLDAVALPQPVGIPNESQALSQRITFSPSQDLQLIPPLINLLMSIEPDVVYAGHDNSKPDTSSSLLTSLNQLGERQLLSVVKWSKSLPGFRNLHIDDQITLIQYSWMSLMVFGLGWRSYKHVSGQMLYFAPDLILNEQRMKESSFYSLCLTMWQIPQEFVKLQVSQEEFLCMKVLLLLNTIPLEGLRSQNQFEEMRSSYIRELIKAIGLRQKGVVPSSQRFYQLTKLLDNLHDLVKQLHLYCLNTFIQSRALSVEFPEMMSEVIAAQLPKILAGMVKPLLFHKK

Testosterone = molecular target: T5, Testosterone (Rattus norvegicus, UniProt P15207); assay: receptor screen, Testosterone; type: binding; settings: inactive = displacement at 10,000 nM less than 75%
T5 sequence (P15207 651-882 limits assumed): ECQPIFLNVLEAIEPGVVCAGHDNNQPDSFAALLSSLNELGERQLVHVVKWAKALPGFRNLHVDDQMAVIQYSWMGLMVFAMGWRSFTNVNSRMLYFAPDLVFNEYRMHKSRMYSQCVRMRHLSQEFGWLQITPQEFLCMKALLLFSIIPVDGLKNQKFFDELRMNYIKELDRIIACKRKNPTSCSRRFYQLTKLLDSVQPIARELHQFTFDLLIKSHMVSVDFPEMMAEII

[2] = 10 mg/kg i.p., initial phase, first 30 min (cocaine: up to the maximum)
[3] = i.p. (1 to 10 mg/kg), injected immediately before conditioning sessions

K+ Channel hERG, sequence (Q12809 whole entry): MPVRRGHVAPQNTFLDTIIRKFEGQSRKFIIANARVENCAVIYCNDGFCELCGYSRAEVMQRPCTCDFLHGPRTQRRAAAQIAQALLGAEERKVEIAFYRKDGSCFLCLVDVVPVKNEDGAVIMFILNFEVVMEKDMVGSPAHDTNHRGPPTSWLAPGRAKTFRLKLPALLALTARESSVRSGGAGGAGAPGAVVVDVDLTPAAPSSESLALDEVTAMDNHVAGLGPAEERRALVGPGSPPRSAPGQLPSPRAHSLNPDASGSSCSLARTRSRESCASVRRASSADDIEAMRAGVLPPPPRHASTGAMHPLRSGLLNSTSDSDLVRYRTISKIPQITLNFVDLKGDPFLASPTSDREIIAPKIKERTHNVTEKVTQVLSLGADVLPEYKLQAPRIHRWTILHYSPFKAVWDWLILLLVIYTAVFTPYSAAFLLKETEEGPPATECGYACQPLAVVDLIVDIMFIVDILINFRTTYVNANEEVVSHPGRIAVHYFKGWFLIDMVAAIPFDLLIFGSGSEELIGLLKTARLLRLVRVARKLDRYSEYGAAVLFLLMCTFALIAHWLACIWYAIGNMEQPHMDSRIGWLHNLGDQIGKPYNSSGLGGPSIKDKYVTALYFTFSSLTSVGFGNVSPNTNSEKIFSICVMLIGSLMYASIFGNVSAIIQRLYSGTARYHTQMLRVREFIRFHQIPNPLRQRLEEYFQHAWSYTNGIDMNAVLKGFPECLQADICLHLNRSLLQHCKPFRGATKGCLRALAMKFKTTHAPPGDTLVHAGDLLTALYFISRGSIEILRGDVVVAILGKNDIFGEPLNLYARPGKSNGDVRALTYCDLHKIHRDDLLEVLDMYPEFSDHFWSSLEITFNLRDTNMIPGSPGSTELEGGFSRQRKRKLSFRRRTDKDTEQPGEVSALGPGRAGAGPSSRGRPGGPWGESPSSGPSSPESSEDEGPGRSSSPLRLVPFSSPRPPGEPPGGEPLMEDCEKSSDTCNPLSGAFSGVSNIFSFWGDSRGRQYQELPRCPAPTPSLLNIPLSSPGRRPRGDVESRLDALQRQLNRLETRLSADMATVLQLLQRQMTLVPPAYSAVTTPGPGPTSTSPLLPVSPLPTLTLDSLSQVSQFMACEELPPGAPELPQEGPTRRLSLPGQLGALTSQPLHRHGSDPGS

CCOC(=O)[C@@H]1C(OC(c2ccc(Cl)cc2)c2ccc(Cl)cc2)C[C@@H]2CC[C@H]1N2C (mixture of isomers) [MFZ 4-86, (±)-2α-carboethoxy-3R-[bis(4-chlorophenyl)methoxy]tropane]
selectivity K+ hERG channel over the DAT (K+ Channel hERG): ~ 20 fold | effect on dialysate DA levels from the NAC shell ([1]; 1.0 mg/kg i.p.): increases in DA that did not achieve statistical significance | effect on dialysate DA levels from the NAC shell ([1]; 3.0 mg/kg i.p.): also increased DA concentrations, though less than at the higher dose | time after injection at which DA exceeded 165% of basal values ([1]; 3.0 mg/kg i.p.): 50 min | rate of increase in DA concentrations ([1]; 3.0 mg/kg i.p., initial phase (cocaine: up to the maximum)): 3.05 (±0.270) %/min | DA concentrations in NAC shell at times of conditioning sessions compared with 3.0 mg/kg cocaine (165% of basal) ([1]; 3.0 mg/kg i.p.): levels that approximated those of cocaine in all but the first 30 min | duration of increase in DA levels ([1]; 10 mg/kg i.p.): remained elevated for the entire five-hr session | time after injection at which DA exceeded 165% of basal values ([1]; 10 mg/kg i.p.): 20 min | time after injection until which DA increase continued (peak) ([1]; 10 mg/kg i.p.): about 120 min | rate of increase in DA concentrations [1, 2]: 6.74 (±0.371) %/min | DA concentrations in NAC shell at times of conditioning sessions compared with 3.0 mg/kg cocaine (165% of basal) ([1]; 10.0 mg/kg i.p.): levels that exceeded those of the 3.0 mg/kg dose of cocaine at all pretreatment times | place conditioning (time allocated to compound-paired compartment) (rats; [3]): without significant place-conditioning effects | potency in Y335A mutant DAT relative to wild-type DAT (fold lower) (Y335A mutant DAT; ref Loland et al. 2008): ~13 fold

COC(=O)[C@@H]1C(OC(c2ccc(Cl)cc2)c2ccc(Cl)cc2)C[C@@H]2CC[C@H]1N2C (mixture of isomers) [MFZ 4-87, (±)-2α-carbomethoxy-3R-[bis(4-chlorophenyl)methoxy]tropane]
selectivity for the DAT compared to any other site assayed (DAT): ~ 30 fold | selectivity K+ hERG channel over the DAT (K+ Channel hERG): ~ 20 fold | increase in dialysate DA concentrations ([1]; 1.0 mg/kg i.p.): ≤ 165 % of basal levels | DA concentrations in NAC shell at times of conditioning sessions compared with 3.0 mg/kg cocaine (165% of basal) ([1]; 3.0 mg/kg i.p.): levels that approximated those of cocaine in all but the first 30 min | increase in dialysate DA concentrations ([1]; 3.0 mg/kg i.p., slightly exceeded): exceeded 165 % of basal levels | duration of increase in DA levels ([1]; 10 mg/kg i.p.): ≥ 4 h | maximum / maintained DA concentration ([1]; 10 mg/kg i.p.): about 350 % of basal levels | time after injection until which DA increase continued (peak) ([1]; 10 mg/kg i.p.): about 160 min | rate of increase in DA concentrations [1, 2]: 5.59 (±0.712) %/min | DA concentrations in NAC shell at times of conditioning sessions compared with 3.0 mg/kg cocaine (165% of basal) ([1]; 10.0 mg/kg i.p.): levels that exceeded those of the 3.0 mg/kg dose of cocaine at all pretreatment times | place conditioning (time allocated to compound-paired compartment) (rats; [3]): did not produce a change in allocation of time to the compound-paired compartment

CN1C2CCC1CC(OC(c1ccc(Cl)cc1)c1ccc(Cl)cc1)C2 (stereo not drawn) [4,4-diCl-BZT, 4′-chloro-4″-chloro-3α-(diphenylmethoxy)tropane]
Ki Adenosine A1 (Adenosine A1): inactive | Ki Dopamine D2L (Dopamine D2L): inactive | Ki Estrogen ERα (Estrogen ERα): inactive | Ki Glucocorticoid (Glucocorticoid): inactive | Ki (Muscarinic M2): 0.64 µM | Ki (Muscarinic M3): 0.01 µM | Ki Progesterone (Progesterone): inactive | Ki Testosterone (Testosterone): inactive | effect on dialysate DA levels from the NAC shell ([1]; 1.0 mg/kg i.p.): did not significantly affect DA levels | effect on dialysate DA levels from the NAC shell ([1]; 3.0 mg/kg i.p.): did not significantly affect DA levels | effect on dialysate DA levels from the NAC shell ([1]; 10 mg/kg i.p.): significant increase in DA levels | time after injection at which DA exceeded 165% of basal values ([1]; 10 mg/kg i.p.): ≤ 20 min | time after injection until which DA increase continued (peak) ([1]; 10 mg/kg i.p.): about 140 min | place conditioning (time allocated to compound-paired compartment) (rats; [3]): without significant place-conditioning effects

COC(=O)[C@H]1[C@@H](OC(=O)c2ccccc2)C[C@@H]2CC[C@H]1N2C [cocaine, (−)-cocaine, reference compound]
effect on dialysate DA levels from the NAC shell ([1]; 3.0 mg/kg i.p.): significantly increased extracellular DA concentrations | rate of increase in DA concentrations ([1]; 3.0 mg/kg i.p., initial phase (cocaine: up to the maximum), 3 mg/kg): 4.84 (±0.359) %/min and 4.84 %/min | effect on dialysate DA levels from the NAC shell ([1]; 10 mg/kg i.p.): significantly increased extracellular DA concentrations | rate of increase in DA concentrations [1, 2]: 11.4 (±0.860) %/min | place conditioning (time allocated to compound-paired compartment) (rats; i.p., each dose tested, injected immediately before sessions): significant place conditioning | potency in Y335A mutant DAT relative to wild-type DAT (Y335A mutant DAT; ref Loland et al. 2002): reduced by about two orders of magnitude
